Test system: serotonin levels in rat ventral hippocampus
Test: Microdialysis of serotonin levels in ventral hippocampus
Assay type: in vivo
Method: Male albino rats of a Wistar-derived strain (285-320 g; Harlan, Zeist, The Netherlands) were used for the experiments. Upon surgery, rats were housed individually in plastic cages (35×35×40 cm), and had free access to food and water. Animals were kept on a 12 h light schedule (light on 7:00 a.m.). The experiments are concordant with the declarations of Helsinki and were approved by the animal care committee of the faculty of mathematics and natural science of the University of Groningen.
The following drugs were used: Citalopram hydrobromide and NFPS having the structure: [drawing 3] (LU 2736N) (Lundbeck A/S, Copenhagen, Denmark). Drugs were dissolved in saline and administered s.c. Surgery […]
Twenty-μl microdialysate samples were injected via an autoinjector (CMA/200 refrigerated microsampler, CMA, Sweden) onto a 100×2.0 mm C18 Hypersil 3 μm column (Bester, Amstelveen, the Netherlands) and separated with a mobile phase consisting of 5 g/L di-ammoniumsulfate, 500 mg/L EDTA, 50 mg/L heptane sulphonic acid, 4% methanol v/v, and 30 μl/L of triethylamine, pH 4.65 at a flow of 0.4 ml/min (Shimadzu LC-10 AD). 5-HT was detected amperometrically at a glassy carbon electrode at 500 mV vs Ag/AgCl (Antec Leyden, Leiden, The Netherlands). […]

CN(CCC(Oc1ccc(-c2ccccc2)cc1)c1ccc(F)cc1)CC(=O)O (centres unmarked) [NFPS]
augmentation of the effect of citalopram on hippocampal serotonin levels (NFPS 10 μmol/kg s.c. co-administered with citalopram 10 μmol/kg s.c., Treatment P=0.044, Treatment vs. Time P=0.033): significantly augmented the effect of citalopram | effect on serotonin levels in rat ventral hippocampus (NFPS alone, 10 μmol/kg s.c., microdialysis, Wistar rats): did not induce any significant effects
